Measurements: the NIST ThermoML archive (doi:10.1016/j.fluid.2016.07.034)

Experiment: molar heat capacity at constant pressure
Details: Flow calorimetry

CCF [fluoroethane]
Details	molar heat capacity at constant pressure [J/K/mol]
303.42 K, 1340 kPa, Liquid	107.27
303.47 K, 1930 kPa, Liquid	106.74
303.48 K, 6470 kPa, Liquid	102.68
303.49 K, 9530 kPa, Liquid	100.86
303.5 K, 2520 kPa, Liquid	106.24
303.5 K, 8030 kPa, Liquid	101.83
303.5 K, 10100 kPa, Liquid	100.8
303.51 K, 7100 kPa, Liquid	102.32
303.51 K, 11050 kPa, Liquid	100.2
303.52 K, 5200 kPa, Liquid	103.84
303.52 K, 8440 kPa, Liquid	101.93
303.52 K, 10520 kPa, Liquid	100.64
303.52 K, 11560 kPa, Liquid	100.42
303.53 K, 3000 kPa, Liquid	106.02
303.53 K, 5540 kPa, Liquid	103.57
303.53 K, 5980 kPa, Liquid	103.24
303.53 K, 7520 kPa, Liquid	102.26
303.53 K, 9130 kPa, Liquid	101.37
303.54 K, 12050 kPa, Liquid	100.01
303.55 K, 3510 kPa, Liquid	105.63
303.55 K, 4550 kPa, Liquid	104.88
303.57 K, 4010 kPa, Liquid	105.42
313.31 K, 2010 kPa, Liquid	110.61
313.33 K, 3080 kPa, Liquid	109.26
313.35 K, 2560 kPa, Liquid	110.04
313.35 K, 3500 kPa, Liquid	108.56
313.36 K, 4000 kPa, Liquid	108.09
313.37 K, 4510 kPa, Liquid	107.49
313.37 K, 7030 kPa, Liquid	104.99
313.38 K, 8490 kPa, Liquid	103.71
313.38 K, 9510 kPa, Liquid	102.92
313.39 K, 5070 kPa, Liquid	107.08
313.39 K, 7490 kPa, Liquid	104.67
313.4 K, 9090 kPa, Liquid	103.61
313.4 K, 10010 kPa, Liquid	102.8
313.41 K, 1510 kPa, Liquid	112.39
313.41 K, 6080 kPa, Liquid	106.37
313.42 K, 5490 kPa, Liquid	106.99
313.42 K, 7980 kPa, Liquid	104.69
313.42 K, 10490 kPa, Liquid	102.75
313.43 K, 6510 kPa, Liquid	106.03
313.43 K, 10980 kPa, Liquid	102.52
313.47 K, 11470 kPa, Liquid	102.55
315.33 K, 1020 kPa, Gas	77.84
315.39 K, 1110 kPa, Gas	80.21
315.56 K, 1220 kPa, Gas	83.09
324.11 K, 2050 kPa, Liquid	115.84
324.13 K, 2570 kPa, Liquid	114.7
324.13 K, 8110 kPa, Liquid	105.47
324.14 K, 5980 kPa, Liquid	108.6
324.15 K, 3000 kPa, Liquid	113.84
324.15 K, 8550 kPa, Liquid	105.2
324.16 K, 4060 kPa, Liquid	111.82
324.16 K, 6470 kPa, Liquid	107.92
324.16 K, 7520 kPa, Liquid	106.39
324.17 K, 5510 kPa, Liquid	109.38
324.17 K, 10040 kPa, Liquid	103.35
324.18 K, 3500 kPa, Liquid	113.06
324.18 K, 4510 kPa, Liquid	111.09
324.19 K, 7020 kPa, Liquid	107.27
324.19 K, 9040 kPa, Liquid	104.9
324.19 K, 10510 kPa, Liquid	103.17
324.19 K, 11010 kPa, Liquid	102.91
324.21 K, 5030 kPa, Liquid	110.51
324.21 K, 9450 kPa, Liquid	104.56
324.21 K, 11610 kPa, Liquid	102.46
324.22 K, 12030 kPa, Liquid	102.24
325.23 K, 1300 kPa, Gas	79.4
325.26 K, 1210 kPa, Gas	77.2
325.57 K, 1110 kPa, Gas	75.5
333.86 K, 2520 kPa, Liquid	124.88
333.92 K, 3010 kPa, Liquid	123.2
333.97 K, 5000 kPa, Liquid	117.16
333.97 K, 5500 kPa, Liquid	115.91
333.98 K, 5990 kPa, Liquid	114.8
333.99 K, 3510 kPa, Liquid	121.92
333.99 K, 4620 kPa, Liquid	118.27
333.99 K, 9500 kPa, Liquid	108.39
334 K, 4070 kPa, Liquid	120.01
334 K, 6530 kPa, Liquid	113.92
334.01 K, 10060 kPa, Liquid	108
334.02 K, 7050 kPa, Liquid	112.82
334.03 K, 8960 kPa, Liquid	109.42
334.03 K, 10520 kPa, Liquid	107.4
334.03 K, 11040 kPa, Liquid	107.08
334.05 K, 7490 kPa, Liquid	112.09
334.05 K, 8350 kPa, Liquid	110.82
334.05 K, 11630 kPa, Liquid	106.69
334.07 K, 12280 kPa, Liquid	106.31
334.76 K, 1410 kPa, Gas	77.78
335.09 K, 1600 kPa, Gas	82.79
335.23 K, 1510 kPa, Gas	80.11
335.46 K, 1300 kPa, Gas	75.24
335.63 K, 1210 kPa, Gas	74.2
343.4 K, 2840 kPa, Liquid	135.92
343.44 K, 3020 kPa, Liquid	134.94
343.77 K, 3540 kPa, Liquid	133.68
343.84 K, 4040 kPa, Liquid	131.08
343.88 K, 4520 kPa, Liquid	129.17
343.89 K, 5970 kPa, Liquid	123.05
343.9 K, 6530 kPa, Liquid	121.47
343.9 K, 7040 kPa, Liquid	120.17
343.9 K, 7540 kPa, Liquid	118.86
343.91 K, 5560 kPa, Liquid	124.9
343.91 K, 8070 kPa, Liquid	117.76
343.91 K, 8530 kPa, Liquid	116.74
343.92 K, 9010 kPa, Liquid	115.78
343.92 K, 9480 kPa, Liquid	114.8
343.92 K, 10010 kPa, Liquid	113.86
343.92 K, 10500 kPa, Liquid	112.99
343.93 K, 5100 kPa, Liquid	126.98
343.93 K, 11010 kPa, Liquid	112.27
343.96 K, 11570 kPa, Liquid	111.8
343.99 K, 12130 kPa, Liquid	111.22
344.36 K, 2000 kPa, Gas	89.95
345.01 K, 1810 kPa, Gas	82.66
345.19 K, 1220 kPa, Gas	72.72
345.35 K, 1600 kPa, Gas	77.74
345.47 K, 1420 kPa, Gas	74.9
353.68 K, 3480 kPa, Liquid	157.19
353.77 K, 8480 kPa, Liquid	121.76
353.78 K, 7950 kPa, Liquid	123.23
353.79 K, 6470 kPa, Liquid	128.91
353.79 K, 9090 kPa, Liquid	120.56
353.79 K, 10010 kPa, Liquid	118.76
353.8 K, 7530 kPa, Liquid	124.7
353.8 K, 9570 kPa, Liquid	119.62
353.8 K, 10480 kPa, Liquid	117.97
353.81 K, 6000 kPa, Liquid	131.53
353.81 K, 7130 kPa, Liquid	126.37
353.81 K, 11040 kPa, Liquid	117.35
353.82 K, 4030 kPa, Liquid	149.07
353.82 K, 5500 kPa, Liquid	134.57
353.84 K, 11540 kPa, Liquid	116.89
353.85 K, 5030 kPa, Liquid	138.32
353.86 K, 4500 kPa, Liquid	143.57
353.87 K, 11950 kPa, Liquid	116.16
355.25 K, 1910 kPa, Gas	81.51
355.27 K, 1520 kPa, Gas	75.85
355.27 K, 1700 kPa, Gas	78.58
355.27 K, 2110 kPa, Gas	85.11
355.28 K, 1310 kPa, Gas	73.7
355.3 K, 1130 kPa, Gas	71.61
355.31 K, 2610 kPa, Gas	99.72
355.33 K, 2820 kPa, Gas	109.04
355.48 K, 2360 kPa, Gas	90.82
355.52 K, 2590 kPa, Gas	97.73
363.33 K, 4330 kPa, Liquid	193.61
363.59 K, 7000 kPa, Liquid	139.97
363.59 K, 7500 kPa, Liquid	136.22
363.59 K, 8480 kPa, Liquid	130.33
363.6 K, 8030 kPa, Liquid	132.67
363.61 K, 9520 kPa, Liquid	125.95
363.61 K, 10000 kPa, Liquid	123.85
363.62 K, 6030 kPa, Liquid	150.44
363.62 K, 6520 kPa, Liquid	144.76
363.63 K, 8990 kPa, Liquid	128.17
363.66 K, 5490 kPa, Liquid	159.6
363.66 K, 10580 kPa, Liquid	122.57
363.68 K, 11000 kPa, Liquid	121.51
363.7 K, 4990 kPa, Liquid	171.83
363.71 K, 11510 kPa, Liquid	120.57
363.75 K, 12010 kPa, Liquid	119.55
365.28 K, 2190 kPa, Gas	82.06
365.28 K, 2400 kPa, Gas	85.63
365.29 K, 2010 kPa, Gas	79.35
365.3 K, 1810 kPa, Gas	76.69
365.33 K, 2600 kPa, Gas	89.76
365.34 K, 1600 kPa, Gas	74.44
365.39 K, 1200 kPa, Gas	71.16
365.39 K, 1410 kPa, Gas	72.82
365.42 K, 2800 kPa, Gas	94.54
365.46 K, 2990 kPa, Gas	99.69
365.54 K, 3400 kPa, Gas	118.14
365.75 K, 3200 kPa, Gas	107.31
373.37 K, 5540 kPa, Liquid	218.6
373.47 K, 9520 kPa, Liquid	134.79
373.48 K, 9010 kPa, Liquid	138.16
373.53 K, 8500 kPa, Liquid	142.08
373.53 K, 9990 kPa, Liquid	132.61
373.53 K, 11480 kPa, Liquid	126.08
373.54 K, 8000 kPa, Liquid	146.44
373.55 K, 6030 kPa, Liquid	187.59
373.56 K, 6990 kPa, Liquid	159.83
373.56 K, 10990 kPa, Liquid	128.66
373.57 K, 7500 kPa, Liquid	151.89
373.58 K, 6510 kPa, Liquid	170.77
373.58 K, 10550 kPa, Liquid	130.44
383.1 K, 6560 kPa, Liquid	239.16
383.57 K, 7020 kPa, Liquid	204.1
383.71 K, 10040 kPa, Liquid	140.17
383.71 K, 10550 kPa, Liquid	136.16
383.74 K, 9490 kPa, Liquid	145.93
383.74 K, 11270 kPa, Liquid	132.02
383.78 K, 7490 kPa, Liquid	182.33
383.81 K, 9090 kPa, Liquid	151.38
383.86 K, 7980 kPa, Liquid	172.97
383.87 K, 8520 kPa, Liquid	160.93
383.88 K, 12030 kPa, Liquid	129.42

O [water]
Liquid
Details	molar heat capacity at constant pressure [J/K/mol]
304.24 K, 100 kPa	75.43
304.28 K, 3030 kPa	74.86
304.36 K, 11970 kPa	74.97
304.37 K, 6180 kPa	75.16
304.4 K, 9010 kPa	74.98
323.09 K, 90 kPa	75.69
323.13 K, 3180 kPa	75.16
323.15 K, 6040 kPa	74.94
323.17 K, 9000 kPa	74.7
323.19 K, 11970 kPa	74.58
371.11 K, 990 kPa	76.21
371.19 K, 2980 kPa	75.91
371.24 K, 5990 kPa	75.65
371.27 K, 9030 kPa	75.39
371.3 K, 12040 kPa	75.11
424.19 K, 12070 kPa	77.23
424.24 K, 1390 kPa	77.92
424.29 K, 3030 kPa	77.82
424.35 K, 6180 kPa	76.99
424.43 K, 9080 kPa	76.79
424.52 K, 15080 kPa	76.51
473.34 K, 2710 kPa	80.78
473.45 K, 6220 kPa	80.48
473.51 K, 9230 kPa	80.25
473.56 K, 12190 kPa	80.08
473.61 K, 15070 kPa	79.73
526 K, 6030 kPa	87.65
526.12 K, 9260 kPa	87.01
526.17 K, 12250 kPa	86.6
526.23 K, 15120 kPa	86.16
577.06 K, 9960 kPa	104.34
577.11 K, 11800 kPa	102.67
577.14 K, 13510 kPa	102.15
577.18 K, 15110 kPa	100.84
